From ChEMBL document CHEMBL3885861, “Open TG-GATES”

Organism: Rattus norvegicus
Assay: Open TG-GATES - Regimen: Single
Type: toxicity, organism-based, Sprague-Dawley
Set-up: regimen Single, gender Male, age 6 weeks
Settings: in vivo, po, 100 mg/kg, route gavage, dose level Middle; for APTT / Bas / Eos / Fbg / Hb / Ht / Lym / MCH / MCHC / MCV / Mono / Neu / PT / Plat / RBC / Ret / WBC: tissue Blood; for KIDNEY_L / KIDNEY_R / KIDNEY_TOTAL: tissue Kidney; for LIVER: tissue Liver; for A/G / ALP / ALT / AST / BUN / CRE / Ca / Cl / DBIL / GLC / IP / K / LDH / Na / PL / RALB / TBIL / TC / TG / TP / gamma-GTP: tissue Plasma

Cc1ccc(C)c(OCCCC(C)(C)C(=O)O)c1 [GEMFIBROZIL]
TERMINAL_BW (3 h): 221.2 g
APTT (3 h): 15.4 s
Bas (3 h): 0%
Eos (3 h): 0.8%
Fbg (3 h): 283.2 mg/dL
Hb (3 h): 13.4 g/dL
Ht (3 h): 39.6%
Lym (3 h): 78.2%
MCH (3 h): 21.5 pg
MCHC (3 h): 33.8%
MCV (3 h): 63.4 fL
Mono (3 h): 3.2%
Neu (3 h): 17.4%
PT (3 h): 12.4 s
Plat (3 h): 116.9 x10_4/uL
RBC (3 h): 624.4 x10_4/ul
Ret (3 h): 7.2%
WBC (3 h): 76.9 x10_2/uL
KIDNEY_L (3 h): 1 g
KIDNEY_R (3 h): 1 g
KIDNEY_TOTAL (3 h): 1.9 g
LIVER (3 h): 9.4 g
A/G (3 h): 0.8
ALP (3 h): 1811 IU/L
ALT (3 h): 47.8 IU/L
AST (3 h): 80.8 IU/L
BUN (3 h): 11.8 mg/dL
CRE (3 h): 0.2 mg/dL
Ca (3 h): 11.4 mg/dL
Cl (3 h): 104.8 meq/L
DBIL (3 h): 0.068 mg/dL
GLC (3 h): 177 mg/dL
IP (3 h): 10.2 mg/dL
K (3 h): 4.3 meq/L
LDH (3 h): 68.8 IU/L
Na (3 h): 140.6 meq/L
PL (3 h): 174.2 mg/dL
RALB (3 h): 2.5 g/dL
TBIL (3 h): 0.072 mg/dL
TC (3 h): 88 mg/dL
TG (3 h): 155.6 mg/dL
TP (3 h): 5.5 g/dL
gamma-GTP (3 h): 1.2 IU/L
TERMINAL_BW (6 h): 224.5 g
APTT (6 h): 14.9 s
Bas (6 h): 0%
Eos (6 h): 0.8%
Fbg (6 h): 297 mg/dL
Hb (6 h): 13.9 g/dL
Ht (6 h): 40.4%
Lym (6 h): 76.2%
MCH (6 h): 21.1 pg
MCHC (6 h): 34.4%
MCV (6 h): 61.2 fL
Mono (6 h): 2.8%
Neu (6 h): 19.4%
PT (6 h): 12 s
Plat (6 h): 124.5 x10_4/uL
RBC (6 h): 659.6 x10_4/ul
Ret (6 h): 7.6%
WBC (6 h): 87.8 x10_2/uL
KIDNEY_L (6 h): 0.9 g
KIDNEY_R (6 h): 0.9 g
KIDNEY_TOTAL (6 h): 1.9 g
LIVER (6 h): 8.7 g
A/G (6 h): 0.9
ALP (6 h): 1550.4 IU/L
ALT (6 h): 42.4 IU/L
AST (6 h): 69.6 IU/L
BUN (6 h): 9.8 mg/dL
CRE (6 h): 0.2 mg/dL
Ca (6 h): 11.3 mg/dL
Cl (6 h): 107.2 meq/L
DBIL (6 h): 0.072 mg/dL
GLC (6 h): 181.2 mg/dL
IP (6 h): 10.7 mg/dL
K (6 h): 4.2 meq/L
LDH (6 h): 61.2 IU/L
Na (6 h): 142 meq/L
PL (6 h): 158.2 mg/dL
RALB (6 h): 2.7 g/dL
TBIL (6 h): 0.056 mg/dL
TC (6 h): 83.4 mg/dL
TG (6 h): 89.2 mg/dL
TP (6 h): 5.5 g/dL
gamma-GTP (6 h): 1 IU/L
TERMINAL_BW (9 h): 221.6 g
APTT (9 h): 16 s
Bas (9 h): 0%
Eos (9 h): 0.8%
Fbg (9 h): 274.2 mg/dL
Hb (9 h): 13.8 g/dL
Ht (9 h): 39.9%
Lym (9 h): 68.2%
MCH (9 h): 21.4 pg
MCHC (9 h): 34.6%
MCV (9 h): 62 fL
Mono (9 h): 2.8%
Neu (9 h): 27.4%
PT (9 h): 12.1 s
Plat (9 h): 125.1 x10_4/uL
RBC (9 h): 643.8 x10_4/ul
Ret (9 h): 7%
WBC (9 h): 83.1 x10_2/uL
KIDNEY_L (9 h): 1 g
KIDNEY_R (9 h): 0.9 g
KIDNEY_TOTAL (9 h): 1.9 g
LIVER (9 h): 8 g
A/G (9 h): 0.9
ALP (9 h): 1612 IU/L
ALT (9 h): 41.8 IU/L
AST (9 h): 70 IU/L
BUN (9 h): 10.8 mg/dL
CRE (9 h): 0.2 mg/dL
Ca (9 h): 11 mg/dL
Cl (9 h): 106.8 meq/L
DBIL (9 h): 0.082 mg/dL
GLC (9 h): 186.8 mg/dL
IP (9 h): 11 mg/dL
K (9 h): 4.1 meq/L
LDH (9 h): 53.4 IU/L
Na (9 h): 142.8 meq/L
PL (9 h): 131.2 mg/dL
RALB (9 h): 2.6 g/dL
TBIL (9 h): 0.054 mg/dL
TC (9 h): 67.6 mg/dL
TG (9 h): 59 mg/dL
TP (9 h): 5.5 g/dL
gamma-GTP (9 h): 1.2 IU/L
TERMINAL_BW (24 h): 225.5 g
APTT (24 h): 14.8 s
Bas (24 h): 0%
Eos (24 h): 0.6%
Fbg (24 h): 269.6 mg/dL
Hb (24 h): 13.8 g/dL
Ht (24 h): 39.8%
Lym (24 h): 83.4%
MCH (24 h): 21.8 pg
MCHC (24 h): 34.7%
MCV (24 h): 62.9 fL
Mono (24 h): 2.2%
Neu (24 h): 12.8%
PT (24 h): 12.3 s
Plat (24 h): 115.1 x10_4/uL
RBC (24 h): 633.8 x10_4/ul
Ret (24 h): 6.7%
WBC (24 h): 74 x10_2/uL
KIDNEY_L (24 h): 0.9 g
KIDNEY_R (24 h): 0.9 g
KIDNEY_TOTAL (24 h): 1.8 g
LIVER (24 h): 10.4 g
A/G (24 h): 0.9
ALP (24 h): 1796.8 IU/L
ALT (24 h): 43.6 IU/L
AST (24 h): 68.2 IU/L
BUN (24 h): 15.8 mg/dL
CRE (24 h): 0.2 mg/dL
Ca (24 h): 11.3 mg/dL
Cl (24 h): 105 meq/L
DBIL (24 h): 0.072 mg/dL
GLC (24 h): 196.8 mg/dL
IP (24 h): 7.9 mg/dL
K (24 h): 4.1 meq/L
LDH (24 h): 56.4 IU/L
Na (24 h): 141.6 meq/L
PL (24 h): 125.2 mg/dL
RALB (24 h): 2.7 g/dL
TBIL (24 h): 0.04 mg/dL
TC (24 h): 62.6 mg/dL
TG (24 h): 69 mg/dL
TP (24 h): 5.5 g/dL
gamma-GTP (24 h): 1.2 IU/L
